Legend:
[1] = test system: bone marrow-derived macrophages (BMMs); test: Activated immune test: ARG1 activity / M2 polarization in IL-4-stimulated BMMs; assay type: cell-based, mouse; details: for inhibition of the expression of arginase induced by IL-4 in macrophages: BMMs pretreated with drug (1 μM), IL-4 stimulation 12 h, absorbance at 540 nm, FIG. 1
Experimental: Activated immune test: bone marrow-derived macrophages (BMMs), as primary cells isolated from bone marrow and subjected to induced culture that can well reflect functions of the macrophages, are commonly used cells to study the functions of the macrophages. A mouse femur bone marrow was isolated and cultured in a medium containing an mCSF factor for 6-7 d to obtain mature BMMs; stimulation with IL-4 for 12 h can induce polarization of the BMMs to an immunosuppressive M2 type with high expression of ARG1; after the ARG1 protein was extracted, arginine hydrolysis was conducted in vitro, and color development was further conducted by reacting α-isonitrosopropiophenone with a hydrolyzate urea; an absorbance was measured at a wavelength of 540 nm as a marker of an ARG1 activity. A specific process was as follows: cells were pretreated with drugs (1 μM) (including the CPLD, CPLL, TBYA, MDK, HMD, compounds 1-3 and compounds 5-7); IL-4 stimulation was conducted for 12 h, followed by washing with PBS, and cells were lysed with a lysis buffer containing a protease inhibitor, and a total cell protein was obtained; after adding […] to 0.4 mM Mn^2, the total cell protein was heated at 55° C. for 10 min to fully activate an arginase ARG1. 0.5 mM arginine was added for incubation at 37° C. for 1 h to 2 h to fully hydrolyze the arginine. An acid solution containing sulfuric acid and phosphoric acid was added to stop the reaction, a 9% α-isonitrosopropiophenone ethanol solution was added, followed by heating at 95° C. for 15 min to 30 min to develop color.

[2] = test system: bone marrow-derived macrophages (BMMs); test: as above; assay type: cell-based, mouse; details: FIG. 1C, FIG. 2
[3] = test system: CD8+ T cells and other immune cells in the tumor; test: FACS analysis / intracellular staining of immune cells in the tumors; assay type: in vivo, mouse
Excerpt: Validation of improving and enhancing CD8^+ T cell function: through FACS analysis, the test results of compound 1 are shown in FIG. 3. […] In addition, the compound 1 is able to down-regulate a proportion of CD206^+ macrophages (FIG. 4).
(§1) Further immunofluorescence staining experiments also find that the CPLD can increase the proportion of CD8 T cells and promote the expression of Granzyme B (L). Further, mice were continuously injected with anti-CD8 antibodies to delete CD8+ T cells in the mice, to construct a melanoma model, followed by investigation of an anti-tumor activity of the compounds.

CD8 T cells = test: immunofluorescence staining of tumors; assay type: in vivo, mouse; details: FIG. 5L
Excerpt: as §1

melanoma = test: CD8+ T cell-depleted melanoma model (anti-CD8 antibodies); assay type: in vivo, mice; details: FIG. 5M to N
Excerpt: as §1

tumor = test: nude mouse tumor model (CPLD); assay type: in vivo; details: FIG. 5M to N

19′-hydroxymelodinineK [HMD]
inhibition of the expression of arginase induced by IL-4 in macrophages [1]: significantly inhibit
inhibition of M2 polarization of the macrophages, concentration dependence [2]: inhibit M2 polarization of the macrophages in a concentration-dependent manner

taberyunine A [TBYA]
inhibition of the expression of arginase induced by IL-4 in macrophages [1]: significantly inhibit
inhibition of M2 polarization of the macrophages, concentration dependence [2]: inhibit M2 polarization of the macrophages in a concentration-dependent manner

CC[C@@]12CC(C(=O)OC)=C3Nc4cc5c(cc4[C@@]34CCN(C[C@H]3O[C@H]31)[C@@H]24)[C@@H]1[C@H](O5)[C@@H](O)[C@@]2(CC)CC(C(=O)OC)=C3Nc4c(cc(O)c(OC)c4OC)[C@@]34CCN1[C@@H]24 [CPLL, conophylline]
inhibition of the expression of arginase induced by IL-4 in macrophages [1]: significantly inhibit
inhibition of M2 polarization of the macrophages, concentration dependence [2]: inhibit M2 polarization of the macrophages in a concentration-dependent manner

melodinine K [MDK]
inhibition of the expression of arginase induced by IL-4 in macrophages [1]: significantly inhibit
inhibition of M2 polarization of the macrophages, concentration dependence [2]: inhibit M2 polarization of the macrophages in a concentration-dependent manner

Ibogabisindole [reference compound]
activity of inhibiting M2 polarization in macrophages ([1]; comparison substances lacking the furan-aspidospermine dimer skeleton): neither the furan-ringed aspidospermine, Corynantheine, nor the furan-ringed aspidospermine, Ibogabisindole, have the activity

CC[C@@]12C=CCN3CC[C@]4(C(=C(C(=O)OC)C1)Nc1cc5c(cc14)[C@H]1[C@@H](O5)[C@H](O)[C@]4(CC)CC(C(=O)OC)=C5Nc6c(cc(O)c(OC)c6OC)[C@@]56CCN1[C@H]46)[C@H]32 [CPLD, conophyllidine]
inhibition of the expression of arginase induced by IL-4 in macrophages [1]: significantly inhibit
effect on CD4 T cells ([3]; FACS analysis): no significant effect
effect on Treg cells (proportion) ([3]; FACS analysis): no effect
proportion of CD8+ T cells in the tumor ([3]; FACS analysis): significantly increase
expression of Granzyme B in CD8+ T cells ([3]; intracellular staining): enhance
expression of IFNγ in CD8+ T cells ([3]; intracellular staining): enhance
expression of TNFα in CD8+ T cells ([3]; intracellular staining): enhance
function of the CD8+ T cells ([3]; intracellular staining): promote
expression of Granzyme B (CD8 T cells): promote
proportion of CD8 T cells (CD8 T cells): increase
anti-tumor effect (melanoma): significantly reduced
anti-tumor effect (tumor): significantly reduced
inhibition of M2 polarization of the macrophages, concentration dependence [2]: inhibit M2 polarization of the macrophages in a concentration-dependent manner
